In patent publication US7271170B2, “Imidazo-pyrimidines and triazolo-pyrimidines: benzodiazepine receptor ligands” (Neurogen Corporation, priority 2003, dated 2007):
pKi: −log10 of the molar value.

The compounds below were run against benzodiazepine site of the GABAA receptor (assay: Ligand binding assay of Example 6 (3H-Ro15-1788 competition, purified rat cortical membranes)). Conditions: ligand binding assay of Example 6; Table 5 Ki.

pKi, > 6.00:
CCCc1c(Cn2ccnc2-c2ncccc2F)ncn2nc(N)nc12 [Compound 248, 7-{[2-(3-fluoropyridin-2-yl)-1H-imidazol-1-yl]methyl}-8-propyl[1,2,4]triazolo[1,5-c]pyrimidin-2-amine]
CCCc1c(Cn2cc(Cl)nc2-c2ncccc2F)ncn2ncnc12 [Compound 241, 7-[4-Chloro-2-(3-fluoro-pyridin-2-yl)-imidazol-1-ylmethyl]-8-propyl-[1,2,4]triazolo[1,5-c]pyrimidine]
CCCc1c(Cn2ccnc2-c2ncccc2C#N)ncn2nc(C)nc12 [Compound 242, 2-[1-(2-methyl-8-propyl-[1,2,4]triazolo[1,5-c]pyrimidin-7-ylmethyl)-1H-imidazol-2-yl]-nicotinonitrile]
CCCc1c(Cn2ccnc2-c2ncccc2F)ncn2nc(COC3CCCC3)nc12 [Compound 265, 2-[(cyclopentyloxy)methyl]-7-{[2-(3-fluoropyridin-2-yl)-1H-imidazol-1-yl]methyl}-8-propyl[1,2,4]triazolo[1,5-c]pyrimidine]
C/C=C/c1c(Cn2ccnc2-c2ncccc2F)ncn2nc(C)nc12 [Compound 224, 7-[2-(3-Fluoro-pyridin-2-yl)-imidazol-1-ylmethyl]-2-methyl-8-propenyl-[1,2,4]triazolo[1,5-c]pyrimidine]
CCCc1c(Cn2ccnc2-c2cccc(C(F)(F)F)n2)ncn2ncnc12 [Compound 235, 8-Propyl-7-[2-(6-trifluoromethyl-pyridin-2-yl)-imidazol-1-ylmethyl]-[1,2,4]triazolo[1,5-c]pyrimidine]
Cc1nc2c(CCO)c(Cn3ccnc3-c3ncccc3F)ncn2n1 [Compound 231, 2-{7-[2-(3-Fluoro-pyridin-2-yl)-imidazol-1-ylmethyl]-2-methyl-[1,2,4]triazolo[1,5-c]pyrimidin-8-yl}-ethanol]
Cc1nc2c(CCF)c(Cn3ccnc3-c3ncccc3F)ncn2n1 [Compound 229, 8-(2-Fluoro-ethyl)-7-[2-(3-fluoro-pyridin-2-yl)-imidazol-1-ylmethyl]-2-methyl-[1,2,4]triazolo[1,5-c]pyrimidine]
CCc1c(Cn2ccnc2-c2ncccc2F)ncn2ncnc12 [Compound 234, 8-ethyl-7-{[2-(3-fluoropyridin-2-yl)-1H-imidazol-1-yl]methyl}[1,2,4]triazolo[1,5-c]pyrimidine]
CCCc1c(Cn2ccnc2-c2ncccc2F)ncn2nc(COCC)nc12 [Compound 261, 2-(ethoxymethyl)-7-{[2-(3-fluoropyridin-2-yl)-1H-imidazol-1-yl]methyl}-8-propyl[1,2,4]triazolo[1,5-c]pyrimidine]
CCCc1c(Cn2ccnc2-c2cccc(F)n2)ncn2nc(C(C)(C)O)nc12 [Compound 252, 2-(7-{[2-(6-fluoropyridin-2-yl)-1H-imidazol-1-yl]methyl}-8-propyl[1,2,4]triazolo[1,5-c]pyrimidin-2-yl)propan-2-ol]
CCCc1c(Cn2ccnc2-c2ncccc2F)ncn2nc(-c3nccs3)nc12 [Compound 258, 7-{[2-(3-fluoropyridin-2-yl)-1H-imidazol-1-yl]methyl}-8-propyl-2-(1,3-thiazol-2-yl)[1,2,4]triazolo[1,5-c]pyrimidine]
Cc1nc2c(CCCCl)c(Cn3ccnc3-c3ncccc3F)ncn2n1 [Compound 230, 8-(3-Chloro-propyl)-7-[2-(3-fluoro-pyridin-2-yl)-imidazol-1-ylmethyl]-2-methyl-[1,2,4]triazolo[1,5-c]pyrimidine]
